US10174067B2, “Type of cytidine derivative and application thereof” (priority 2014, dated 2019)
Marks after values point to notes of the source that are not given here.

Assays:
ICR mice = test: in vivo; conditions: female ICR mice; single-dose ip
Description: This experiment was to investigate the toxic effects of single-dose intraperitoneal administration on ICR mice and determine the maximum tolerated dose (MTD) of each subject. Maximum tolerated dose (MTD) refers to the dose that may not cause an animal to die, may not cause the animal to suffer weight loss exceeding 10% (compared with Day 0), or may not produce significant side effects.
(§1) The corresponding amount of test substance was taken in a 5 mL glass tube and dissolved in ethanol with a 5 mm magnetic stirrer for stirring. After dissolving completely, Cremophor EL was added with continuous stirring. The marked amount of saline was added and mixed evenly before use. The volume ratio of ethanol, Cremophor EL, and physiological saline was 5:5:90.
Varieties and lines: ICR mice; level: SPF; sex: female.
Method of administration: ip. The dose was reduced in case of animal death, till an animal survived; the dose was increased in case of no animal death; the test was ended when the animals survived normally at the given high dose. Finally, the MTD of the mice on the test substances was determined according to the test results. The animals were observed continuously for 7 days after acute administration.
During the experiment, all animals were under detailed and continuous clinical observation for […], twice a day (10:00 am, 16:00 pm) after administration. The observation included but not limited to: skin, hair, ear, nose, mouth, chest, abdomen, external genitalia, limbs and feet, respiratory and circulatory system, autonomic effects (such as salivation), nervous system (such as tremor, convulsions, stress response and abnormal behavior).
The body of animals was weighed before administration, and then weighed and recorded at the same time each day.
The observation results, animal body weight, and animal survival after one week of administration were recorded in detail every day.

[1] = tested on: HCT-116 colon cancer xenografts; test: Tumor growth inhibition of HCT-116 colon cancer xenografts in tumor-bearing nude mice (tumor volume, TGI %, RTV, T/C %); assay type: in vivo, Balb/c Nude mice
Description: 4.1 Tumor cells: colon cancer HCT-116 cells, purchased from the Institute of Cell Biology, Chinese Academy of Sciences. The cells were incubated by F-12 medium (containing 10% FBS) in carbon dioxide incubator at 37° C. and in saturated humidity, with 5% CO2 and 95% air in volume fraction. Before inoculation, the cells at logarithmic phase were taken, and digested with 0.25% trypsin, washed once with PBS and resuspended in PBS for counting. The cells were resuspended in serum-free medium and adjusted to about 3×10^7 cell/mL.
The grouping is as follows:
The formations of tumor at the inoculation site of each group of nude mice were observed. The diameter of tumor nodule (D) was measured three times a week with round hole ruler, and the volume of tumor nodule (V) was calculated according to the following formula: […].
Anti-tumor activity was evaluated by tumor growth inhibition rate TGI (%) and relative tumor proliferation rate T/C (%).
The relative tumor volume (RTV) was calculated as: RTV=Vt/V0, where V0 was the tumor volume when they were grouped and administered, and Vt was the tumor volume at the time of measurement.
The relative proliferation rate T/C (%) was calculated as: […].
TRTV: RTV of the treatment group; CRTV: RTV of the control group.
P<0.05 was considered as significant difference.

[2] = for Day 22 Mortality: single IP dose (mg/kg)
Description: To determine the growth inhibition effect and toxicity of the cytidine derivative samples of the present invention on the transplanted tumor of nude mice bearing colon cancer HCT-116.
as §1
Varieties and lines; Balb/c Nude mice; level: SPF; sex: female.
4.2 Animal inoculation and grouping: Each nude mouse was inoculated subcutaneously with 0.1 mL of cell suspension (3×10^6 cell/mouse) at right side of hind limb in a sterile stale. When the tumor grew to about 60-150 mm^3, the nude mice with similar tumor volume and desirable shape were selected (it would be better to select single spherical shape, no irregular shape or multiple tumors grouped together) for grouping, 6 mice a group. The grouping is as follows:
The control group, namely the model control group, was injected with a mixture of ethanol, Cremophor EL, and saline (5:5:90).
Those mice were weighed three times a week.
All clinical symptoms of each animal should be recorded at the beginning of the test and during the test. The observations should be made at the same time each day.
An animal would be killed by CO2 when its weight loss was more than 20%, when it was about to die, or when its tumor volume exceeded 2800 mm^3. The tumor was separated and weighed, and the animal was autopsied and observed to evaluate and record whether there were pathological changes in the organs.
The data were expressed as Mean±SEM unless specially provided; Non-pairing T test was performed for the data between the two groups. P<0.05 was considered as significant difference.

[3] = Day 0, G3-G9 groups, single IP dose, Mean±SEM
[4] = Day 4, G3-G9 groups, single IP dose, Mean±SEM
[5] = Day 6, G3-G9 groups, single IP dose, Mean±SEM
[6] = Day 8, G3-G9 groups, single IP dose, Mean±SEM
[7] = Day 11, G3-G9 groups, single IP dose, Mean±SEM
[8] = Day 13, G3-G9 groups, single IP dose, Mean±SEM
[9] = Day 15, G3-G9 groups, single IP dose, Mean±SEM
[10] = Day 18, G3-G9 groups, single IP dose, Mean±SEM
[11] = Day 20, G3-G9 groups, single IP dose, Mean±SEM
[12] = Day 22, G3-G9 groups, single IP dose, Mean±SEM

**Q.** With `O=C(Nc1ccn([C@@H]2O[C@H](CO)[C@@H](O)C2(F)F)c(=O)n1)OCc1ccccc1` [Compound G4, 4-N-(carboxybenzyl)-2′-deoxy-2′,2′-difluorocytidine] as the compound, how does the “dose that could be tolerated (maximum tolerated dose, MTD)” value (ICR mice) read?
**A.** 350 mg/kg

**Q.** What about the “Day 0 (RTV)” value [1, 3] of the same compound?
**A.** 1.00 ± 0.00

**Q.** And the “Tumor volume, Day 0” value [1, 3]?
**A.** 63.44 ± 18.74** mm^3

**Q.** What about the “Day 4 (TGI %)” value ([1]; Day 4, G3-G9 groups, single IP dose) of the same compound?
**A.** 83.29%

**Q.** And the “Day 4 (RTV)” value [1, 4]?
**A.** 0.70 ± 0.13

**Q.** And the “Tumor volume, Day 4” value [1, 4]?
**A.** 44.53 ± 13.75** mm^3

**Q.** What about the “Day 6 (TGI %)” value ([1]; Day 6, G3-G9 groups, single IP dose) of the same compound?
**A.** 89.82%

**Q.** What about the “Day 6 (RTV)” value [1, 5] of the same compound?
**A.** 0.68 ± 0.10

**Q.** What about the “Tumor volume, Day 6” value [1, 5] of the same compound?
**A.** 43.04 ± 10.69** mm^3

**Q.** What about the “Day 8 (TGI %)” value ([1]; Day 8, G3-G9 groups, single IP dose) of the same compound?
**A.** 91.66%

**Q.** And the “Day 8 (RTV)” value [1, 6]?
**A.** 0.69 ± 0.13

**Q.** And the “Tumor volume, Day 8” value [1, 6]?
**A.** 43.83 ± 12.73** mm^3

**Q.** And the “tumor inhibition effect” value ([1]; Day 8 to Day 13 after single-dose intraperitoneal administration)?
**A.** good tumor inhibition effect

**Q.** What about the “Day 11 (TGI %)” value ([1]; Day 11, G3-G9 groups, single IP dose) of the same compound?
**A.** 92.58%

**Q.** And the “Day 11 (RTV)” value [1, 7]?
**A.** 1.12 ± 0.29

**Q.** And the “Tumor volume, Day 11” value [1, 7]?
**A.** 59.68 ± 11.72** mm^3

**Q.** What about the “Day 13 (TGI %)” value ([1]; Day 13, G3-G9 groups, single IP dose) of the same compound?
**A.** 92.57%

**Q.** And the “Day 13 (RTV)” value [1, 8]?
**A.** 1.51 ± 0.39

**Q.** And the “Tumor volume, Day 13” value [1, 8]?
**A.** 86.22 ± 24.86** mm^3

**Q.** What about the “Day 15 (TGI %)” value ([1]; Day 15, G3-G9 groups, single IP dose) of the same compound?
**A.** 90.04%

**Q.** And the “Day 15 (RTV)” value [1, 9]?
**A.** 2.80 ± 0.97

**Q.** And the “Tumor volume, Day 15” value [1, 9]?
**A.** 140.70 ± 34.22** mm^3

**Q.** And the “Day 18 (TGI %)” value ([1]; Day 18, G3-G9 groups, single IP dose)?
**A.** 85.93%

**Q.** What about the “Day 18 (RTV)” value [1, 10] of the same compound?
**A.** 5.36 ± 1.82

**Q.** And the “Tumor volume, Day 18” value [1, 10]?
**A.** 260.52 ± 51.15** mm^3

**Q.** And the “Day 20 (TGI %)” value ([1]; Day 20, G3-G9 groups, single IP dose)?
**A.** 78.95%

**Q.** What about the “Day 20 (RTV)” value [1, 11] of the same compound?
**A.** 9.65 ± 3.23

**Q.** And the “Tumor volume, Day 20” value [1, 11]?
**A.** 446.16 ± 65.85** mm^3

**Q.** And the “Day 22 (TGI %)” value ([1]; Day 22, G3-G9 groups, single IP dose)?
**A.** 75.68%

**Q.** What about the “Day 22 (RTV)” value [1, 12] of the same compound?
**A.** 14.66 ± 5.30

**Q.** And the “Tumor volume, Day 22” value [1, 12]?
**A.** 636.07 ± 78.89** mm^3

**Q.** What about the “T/C % on Day 22” value ([1]; Day 22, G4 350 mg/kg, G5 325 mg/kg, G7 250 mg/kg, single IP) of the same compound?
**A.** 75.38%

**Q.** What about the “relative tumor volume compared with the model control group” value ([1]; G4 and G5 Day 4 to Day 18, G7 Day 4 to Day 15 (p<0.05-0.01), G9 only Day 4 (p<0.05)) of the same compound?
**A.** reduced significantly

**Q.** What about the “maximum value of TGI %” value ([1]; day of maximum: G3 Day 8, G4 Day 11, G5 Day 11, G9 Day 4, G7 Day 8, single IP) of the same compound?
**A.** 92.58%

**Q.** What about the “minimum value of T/C %” value ([1]; day of minimum: G4 Day 13, G5 Day 11, G7 Day 8, single IP) of the same compound?
**A.** 17.62%

**Q.** What about the “Weight change rate, Day 0” value [2, 3] of the same compound?
**A.** 0.00 ± 0.00%

**Q.** And the “Weight of mice, Day 0” value [2, 3]?
**A.** 20.20 ± 0.55 g

**Q.** And the “weights of animals on Day 4 after administration” value ([2]; Day 4 (G7: Day 4 and Day 6), p<0.05)?
**A.** significantly reduced

**Q.** And the “Weight change rate, Day 4” value [2, 4]?
**A.** −10.91 ± 3.45 %

**Q.** And the “Weight of mice, Day 4” value [2, 4]?
**A.** 18.22 ± 1.19 g

**Q.** What about the “weight loss rate on Day 4 after administration” value ([2]; Day 4, G4 350 mg/kg, G5 325 mg/kg, G7 250 mg/kg, single IP) of the same compound?
**A.** 10.91±3.45%

**Q.** What about the “animals died on Day 4 after administration” value ([2]; Day 4, G4 350 mg/kg, G8 350 mg/kg, G6 300 mg/kg, single IP, 6 mice a group) of the same compound?
**A.** 1

**Q.** And the “Weight change rate, Day 6” value [2, 5]?
**A.** −1.87 ± 2.96%

**Q.** And the “Weight of mice, Day 6” value [2, 5]?
**A.** 20.06 ± 1.18 g

**Q.** What about the “Weight change rate, Day 8” value [2, 6] of the same compound?
**A.** 0.30 ± 1.84%

**Q.** What about the “Weight of mice, Day 8” value [2, 6] of the same compound?
**A.** 20.48 ± 0.97 g

**Q.** And the “Weight change rate, Day 11” value [2, 7]?
**A.** 3.85 ± 5.08%

**Q.** And the “Weight of mice, Day 11” value [2, 7]?
**A.** 21.08 ± 0.76 g

**Q.** What about the “Weight change rate, Day 13” value [2, 8] of the same compound?
**A.** 7.64 ± 4.55%

**Q.** What about the “Weight of mice, Day 13” value [2, 8] of the same compound?
**A.** 21.86 ± 0.67 g

**Q.** What about the “Weight change rate, Day 15” value [2, 9] of the same compound?
**A.** 8.84 ± 4.33%

**Q.** And the “Weight of mice, Day 15” value [2, 9]?
**A.** 22.10 ± 0.57 g

**Q.** And the “Weight change rate, Day 18” value [2, 10]?
**A.** 9.28 ± 3.53 %

**Q.** And the “Weight of mice, Day 18” value [2, 10]?
**A.** 22.20 ± 0.43 g

**Q.** And the “Weight change rate, Day 20” value [2, 11]?
**A.** 10.50 ± 4.03 %

**Q.** And the “Weight of mice, Day 20” value [2, 11]?
**A.** 22.44 ± 0.49 g

**Q.** What about the “Weight change rate, Day 22” value [2, 12] of the same compound?
**A.** 11.39 ± 4.05%

**Q.** And the “Weight of mice, Day 22” value [2, 12]?
**A.** 22.62 ± 0.49 g

**Q.** And the “Day 22 Mortality” value ([2]; Day 22)?
**A.** 17%

**Q.** And the “body weight compared with model control group” value ([2]; G4 Day 18 to Day 20 (p<0.05), G5 Day 13 to Day 20 (p<0.05~0.01))?
**A.** significantly increased

**Q.** And the clinical symptoms ([2]; after single IP dose, compared with model control group)?
**A.** 3 animals had less activity, loss of body weight, and body surface temperature lower than normal

**Q.** Which “Day 22 Mortality” value ([2]; Day 22) does the source give for `Cl.Nc1ccn([C@@H]2O[C@H](CO)[C@@H](O)C2(F)F)c(=O)n1` [Compound G1, 2′deoxy-2′,2′-difluorocytidine hydrochloride, reference compound] here?
**A.** 100%
